In US8119795B2, “Triazole derivatives II” (Merck Patent GmbH, priority 2006, dated 2012):

Target: T1, Recombinant human HSP90α (Homo sapiens, UniProt P07900)
T1 construct: host or cells: E. coli
Assay: HSP90 radioligand filter binding test ([3H]17AAG competition)
Conditions: [3H]17AAG 0.08 μM, HSP90 1.5 μg/assay, 22° C., 30 min; read-out: IC50* (HSP90 inhibition)
Experimental: Test Method for the Measurement of HSP90 Inhibitors
In the specific case, a radioligand filter binding test is used. The radioligand used here is tritium-labelled 17-allylaminogeldanamycin, [3H]17AAG. This filter binding test allows a targeted search for inhibitors which interfere with the ATP binding site.
Recombinant human HSP90α (E. coli expressed, 95% purity);
HEPES filter buffer (50 mM HEPES, pH 7.0, 5 mM MgCl2, BSA 0.01%)
Multiscreen F B (1 μm) filter plate (Millipore, MAFBNOB 50).
The 96-well microtitre filter plates are firstly irrigated and coated with 0.1% of polyethylenimine.
The test is carried out under the following conditions:
Reaction temperature 22° C.
Reaction time: 30 min., shaking at 800 rpm
50 mM HEPES HCl, pH 7.0, 5 mM MgCl2, 0.01% (w/v) BSA
At the end of the reaction, the supernatant in the filter plate is removed by suction with the aid of a vacuum manifold (Multiscreen Separation System, Millipore), and the filter is washed twice.
The filter plates are then measured in a beta counter (Microbeta, Wallac) with scintillator (Microscint 20, Packard).
“% of control” is determined from the “counts per minutes” values and the IC50 value of a compound is calculated therefrom.

| IC50 [nM] | SMILES |
| --- | --- |
| 10 to 1000 | Cc1ccccc1-n1c(O)nnc1-c1cc(C(=O)N(C)Cc2ccccc2F)c(O)cc1O [Compound A9, 5-{2,4-Dihydroxy-5-[N-(2-fluorobenzyl)-N-methylaminocarbonyl]phenyl}-4-(2-methylphenyl)-3-hydroxy-4H-1,2,4-triazole] |
| 10 to 1000 | Cc1ccccc1-n1c(O)nnc1-c1cc(C(=O)N(C)Cc2ccco2)c(O)cc1O [Compound A57, 5-{2,4-Dihydroxy-5-[N-(furan-2-ylmethyl)-N-methylaminocarbonyl]phenyl}-4-(2-methylphenyl)-3-hydroxy-4H-1,2,4-triazole] |
| 10 to 1000 | CN(Cc1ccco1)C(=O)c1cc(-c2nnc(O)n2-c2cccc(F)c2)c(O)cc1O [Compound A59a, 5-{2,4-Dihydroxy-5-[N-(furan-2-ylmethyl)-N-methylaminocarbonyl]phenyl}-4-(3-fluorophenyl)-3-hydroxy-4H-1,2,4-triazole] |
| 10 to 1000 | Cc1cccc(-n2c(O)nnc2-c2cc(C(=O)N(C)Cc3ccco3)c(O)cc2O)c1 [Compound A57b, 5-{2,4-Dihydroxy-5-[N-(furan-2-ylmethyl)-N-methylaminocarbonyl]phenyl}-4-(3-methylphenyl)-3-hydroxy-4H-1,2,4-triazole] |
| 10 to 1000 | CCc1cccc(-n2c(O)nnc2-c2cc(C(=O)N(C)Cc3ccco3)c(O)cc2O)c1 [Compound A59b, 5-{2,4-Dihydroxy-5-[N-(furan-2-ylmethyl)-N-methylaminocarbonyl]phenyl}-4-(3-ethylphenyl)-3-hydroxy-4H-1,2,4-triazole] |
| 10 to 1000 | COc1ccc(Cl)cc1CN(C)C(=O)c1cc(-c2nnc(O)n2-c2ccccc2C)c(O)cc1O [Compound A51, 5-{2,4-Dihydroxy-5-[N-(3-chloro-6-methoxybenzyl)-N-methylaminocarbonyl]phenyl}-4-(2-methylphenyl)-3-hydroxy-4H-1,2,4-triazole] |
| 10 to 1000 | CN(Cc1ccco1)C(=O)c1cc(-c2nnc(O)n2-c2cccc(Cl)c2)c(O)cc1O [Compound A58a, 5-{2,4-Dihydroxy-5-[N-(furan-2-ylmethyl)-N-methylaminocarbonyl]phenyl}-4-(3-chlorophenyl)-3-hydroxy-4H-1,2,4-triazole] |
| 10 to 1000 | Cc1ccccc1-n1c(O)nnc1-c1cc(C(=O)N(C)Cc2ccccc2Cl)c(O)cc1O [Compound A27, 5-{2,4-Dihydroxy-5-[N-(2-chlorobenzyl)-N-methylaminocarbonyl]phenyl}-4-(2-methylphenyl)-3-hydroxy-4H-1,2,4-triazole] |
| 10 to 1000 | Cc1ccccc1-n1c(O)nnc1-c1cc(C(=O)N(C)Cc2cccc(F)c2)c(O)cc1O [Compound A15, 5-{2,4-Dihydroxy-5-[N-(3-fluorobenzyl)-N-methylaminocarbonyl]phenyl}-4-(2-methylphenyl)-3-hydroxy-4H-1,2,4-triazole] |
| 10 to 1000 | Cc1ccccc1-n1c(O)nnc1-c1cc(C(=O)N(C)Cc2ccc(F)cc2)c(O)cc1O [Compound A12, 5-{2,4-Dihydroxy-5-[N-(4-fluorobenzyl)-N-methylaminocarbonyl]phenyl}-4-(2-methylphenyl)-3-hydroxy-4H-1,2,4-triazole] |
| 10 to 1000 | CCc1ccccc1-n1c(O)nnc1-c1cc(C(=O)N(C)Cc2ccco2)c(O)cc1O [Compound A62c, 5-{2,4-Dihydroxy-5-[N-(furan-2-ylmethyl)-N-methylaminocarbonyl]phenyl}-4-(2-ethylphenyl)-3-hydroxy-4H-1,2,4-triazole] |
| 10 to 1000 | CN(Cc1ccco1)C(=O)c1cc(-c2nnc(O)n2-c2ccccc2Cl)c(O)cc1O [Compound A58, 5-{2,4-Dihydroxy-5-[N-(furan-2-ylmethyl)-N-methylaminocarbonyl]phenyl}-4-(2-chlorophenyl)-3-hydroxy-4H-1,2,4-triazole] |
| 10 to 1000 | CN(Cc1ccco1)C(=O)c1cc(-c2nnc(O)n2-c2ccc(Cl)cc2)c(O)cc1O [Compound A58c, 5-{2,4-Dihydroxy-5-[N-(furan-2-ylmethyl)-N-methylaminocarbonyl]phenyl}-4-(4-chlorophenyl)-3-hydroxy-4H-1,2,4-triazole] |
| 10 to 1000 | CN(Cc1ccco1)C(=O)c1cc(-c2nnc(O)n2-c2cc(Cl)cc(Cl)c2)c(O)cc1O [Compound A58b, 5-{2,4-Dihydroxy-5-[N-(furan-2-ylmethyl)-N-methylaminocarbonyl]phenyl}-4-(3,5-dichlorophenyl)-3-hydroxy-4H-1,2,4-triazole] |
| 10 to 1000 | COc1cccc(CN(C)C(=O)c2cc(-c3nnc(O)n3-c3ccccc3C)c(O)cc2O)c1 [Compound A6a, 5-{2,4-Dihydroxy-5-[N-(3-methoxybenzyl)-N-methylaminocarbonyl]phenyl}-4-(2-methylphenyl)-3-hydroxy-4H-1,2,4-triazole] |
| 10 to 1000 | Cc1ccccc1-n1c(O)nnc1-c1cc(C(=O)N(C)Cc2cccc(Cl)c2)c(O)cc1O [Compound A24, 5-{2,4-Dihydroxy-5-[N-(3-chlorobenzyl)-N-methylaminocarbonyl]phenyl}-4-(2-methylphenyl)-3-hydroxy-4H-1,2,4-triazole] |
| 10 to 1000 | COc1cccc(-n2c(O)nnc2-c2cc(C(=O)N(C)Cc3ccco3)c(O)cc2O)c1 [Compound A62b, 5-{2,4-Dihydroxy-5-[N-(furan-2-ylmethyl)-N-methylaminocarbonyl]phenyl}-4-(3-methoxyphenyl)-3-hydroxy-4H-1,2,4-triazole] |
| 10 to 1000 | CN(Cc1ccco1)C(=O)c1cc(-c2nnc(O)n2-c2ccccc2)c(O)cc1O [Compound A57a, 5-{2,4-Dihydroxy-5-[N-(furan-2-ylmethyl)-N-methylaminocarbonyl]phenyl}-4-phenyl-3-hydroxy-4H-1,2,4-triazole] |
| 10 to 1000 | COc1cc(O)c(-c2nnc(O)n2-c2ccccc2C)cc1C(=O)N(C)Cc1ccccc1 [Compound A116a, 5-[2-Hydroxy-4-methoxy-5-(N-benzyl-N-methylaminocarbonyl)phenyl]-4-(2-methylphenyl)-3-hydroxy-4H-1,2,4-triazole] |
| 1000 to 10000 | Cc1ccccc1-n1c(-c2cc(C(=O)N(C)Cc3cccc(OCCN4CCOCC4)c3)c(O)cc2O)n[nH]c1=O [Compound A116c, 2,4-Dihydroxy-N-methyl-N-[3-(2-morpholin-4-ylethoxy)benzyl]-5-(5-oxo-4-o-tolyl-4,5-dihydro-1H-1,2,4-triazol-3-yl)benzamide] |
